The text below walks through data of publication PMC7486443, “Generation of Phenothiazine with Potent Anti-TLK1 Activity for Prostate Cancer Therapy” (iScience, 2020).

Assay in all cases: biochemical
What all share (parameters): DiscoverX KINOMEscan scanMAX competition binding panel, single concentration, percent of control; remaining binding: dose or concentration left out as unconfirmed
Holding throughout (conditions): KINOMEscan binding, percent of control; read-out: Table S4_SCANMAX REPORT - related to Fig. 1 / Percent Control

In experiment [1] the target is AKT1 (Homo sapiens, UniProt P31749).
Chain of AKT1 (P31749 whole entry): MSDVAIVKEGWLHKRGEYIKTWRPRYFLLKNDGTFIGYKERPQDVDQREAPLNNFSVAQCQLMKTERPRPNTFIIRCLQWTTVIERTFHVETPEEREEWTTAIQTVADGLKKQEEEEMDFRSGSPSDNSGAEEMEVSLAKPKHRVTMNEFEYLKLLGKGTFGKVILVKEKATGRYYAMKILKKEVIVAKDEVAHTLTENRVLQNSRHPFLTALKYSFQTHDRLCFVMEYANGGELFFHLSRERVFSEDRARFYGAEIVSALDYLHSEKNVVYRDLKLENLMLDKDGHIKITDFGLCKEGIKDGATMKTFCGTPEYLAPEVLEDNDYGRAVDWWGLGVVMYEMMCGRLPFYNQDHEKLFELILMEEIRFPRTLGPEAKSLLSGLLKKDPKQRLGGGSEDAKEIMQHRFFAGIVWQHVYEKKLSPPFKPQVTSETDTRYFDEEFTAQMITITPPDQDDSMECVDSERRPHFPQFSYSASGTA
Experiment [2] concerns the target CAMK2D (Homo sapiens, UniProt Q13557).
Experiment [3] concerns the target TBK1 (Homo sapiens, UniProt Q9UHD2).
The target in experiment [4] is RIOK3 (Homo sapiens, UniProt O14730).
Chain of RIOK3 (O14730 whole entry): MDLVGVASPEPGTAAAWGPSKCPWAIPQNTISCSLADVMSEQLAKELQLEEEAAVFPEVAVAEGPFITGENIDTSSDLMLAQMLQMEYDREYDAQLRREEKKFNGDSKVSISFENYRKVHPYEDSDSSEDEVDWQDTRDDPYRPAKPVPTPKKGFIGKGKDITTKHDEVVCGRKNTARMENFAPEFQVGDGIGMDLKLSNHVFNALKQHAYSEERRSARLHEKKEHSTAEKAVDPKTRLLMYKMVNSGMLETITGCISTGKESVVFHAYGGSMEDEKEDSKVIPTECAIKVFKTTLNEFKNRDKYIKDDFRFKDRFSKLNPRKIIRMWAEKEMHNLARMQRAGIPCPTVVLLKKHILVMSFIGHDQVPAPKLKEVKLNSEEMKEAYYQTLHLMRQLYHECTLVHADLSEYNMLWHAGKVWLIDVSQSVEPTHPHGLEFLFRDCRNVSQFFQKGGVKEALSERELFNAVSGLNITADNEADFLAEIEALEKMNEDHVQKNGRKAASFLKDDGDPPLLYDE
Experiment [5] addresses LRRK2 (Homo sapiens, UniProt Q5S007).
In experiment [6] the target is FES (Homo sapiens, UniProt P07332).
Experiment [7] has as its target T1, ABL1(Q252H)-nonphosphorylated (Homo sapiens, UniProt P00519, Q252H).
T1 construct: nonphosphorylated

In experiment [8] the target is FLT3(D835Y) (Homo sapiens, UniProt P36888, D835Y).
Experiment [9] concerns the target NEK10 (Homo sapiens, UniProt Q6ZWH5).
The target in experiment [10] is DDR1 (Homo sapiens, UniProt Q08345).
The target of experiment [11] is KIT(D816H) (Homo sapiens, UniProt P10721, D816H).
Chain of KIT(D816H) (P10721 whole entry D816H): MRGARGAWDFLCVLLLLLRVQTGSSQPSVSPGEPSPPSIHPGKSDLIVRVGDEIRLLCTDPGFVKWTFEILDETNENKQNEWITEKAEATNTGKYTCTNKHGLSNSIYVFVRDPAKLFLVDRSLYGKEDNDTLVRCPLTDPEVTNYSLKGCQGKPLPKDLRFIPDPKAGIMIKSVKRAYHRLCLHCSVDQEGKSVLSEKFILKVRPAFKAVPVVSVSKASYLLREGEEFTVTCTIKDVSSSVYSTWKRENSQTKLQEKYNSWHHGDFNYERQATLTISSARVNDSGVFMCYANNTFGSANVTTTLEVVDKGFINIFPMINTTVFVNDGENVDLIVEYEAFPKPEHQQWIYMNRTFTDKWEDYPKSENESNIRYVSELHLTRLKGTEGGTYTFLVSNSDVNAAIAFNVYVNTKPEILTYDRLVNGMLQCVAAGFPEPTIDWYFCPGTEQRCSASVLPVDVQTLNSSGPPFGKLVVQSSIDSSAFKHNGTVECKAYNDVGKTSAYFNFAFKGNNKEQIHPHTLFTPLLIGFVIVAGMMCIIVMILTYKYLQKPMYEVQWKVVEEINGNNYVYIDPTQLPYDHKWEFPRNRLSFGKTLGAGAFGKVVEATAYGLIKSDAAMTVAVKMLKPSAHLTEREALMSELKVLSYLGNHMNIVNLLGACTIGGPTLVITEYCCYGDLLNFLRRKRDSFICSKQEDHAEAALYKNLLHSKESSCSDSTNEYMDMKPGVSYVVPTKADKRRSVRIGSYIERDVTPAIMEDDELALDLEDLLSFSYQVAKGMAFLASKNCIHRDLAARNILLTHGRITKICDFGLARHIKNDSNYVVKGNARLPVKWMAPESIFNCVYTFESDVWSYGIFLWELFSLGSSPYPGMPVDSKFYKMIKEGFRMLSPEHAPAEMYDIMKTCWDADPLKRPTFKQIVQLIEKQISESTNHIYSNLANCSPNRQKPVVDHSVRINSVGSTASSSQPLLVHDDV
The target in experiment [12] is EGFR(L747-T751del,Sins) (Homo sapiens, UniProt P00533, DEL747-750/T751S).
Experiment [13] has as its target CDK2 (Homo sapiens, UniProt P24941).
Experiment [14] addresses CHEK2 (Homo sapiens, UniProt O96017).
The target of experiment [15] is RET (Homo sapiens, UniProt P07949).
The target of experiment [16] is MAPKAPK2 (Homo sapiens, UniProt P49137).
Chain of MAPKAPK2 (P49137 whole entry): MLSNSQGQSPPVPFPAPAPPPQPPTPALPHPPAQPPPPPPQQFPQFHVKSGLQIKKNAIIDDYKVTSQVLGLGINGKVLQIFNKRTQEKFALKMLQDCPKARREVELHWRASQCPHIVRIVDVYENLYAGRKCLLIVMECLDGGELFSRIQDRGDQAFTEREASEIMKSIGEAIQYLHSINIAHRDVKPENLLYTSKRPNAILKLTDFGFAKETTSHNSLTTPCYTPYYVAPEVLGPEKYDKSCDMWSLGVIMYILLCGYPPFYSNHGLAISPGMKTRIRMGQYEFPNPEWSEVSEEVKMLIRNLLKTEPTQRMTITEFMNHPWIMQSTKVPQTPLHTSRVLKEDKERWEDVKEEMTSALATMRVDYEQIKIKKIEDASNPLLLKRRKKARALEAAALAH
Experiment [17] has as its target HCK (Homo sapiens, UniProt P08631).
Experiment [18] concerns the target SBK1 (Homo sapiens, UniProt Q52WX2).

Chain of SBK1 (Q52WX2 whole entry): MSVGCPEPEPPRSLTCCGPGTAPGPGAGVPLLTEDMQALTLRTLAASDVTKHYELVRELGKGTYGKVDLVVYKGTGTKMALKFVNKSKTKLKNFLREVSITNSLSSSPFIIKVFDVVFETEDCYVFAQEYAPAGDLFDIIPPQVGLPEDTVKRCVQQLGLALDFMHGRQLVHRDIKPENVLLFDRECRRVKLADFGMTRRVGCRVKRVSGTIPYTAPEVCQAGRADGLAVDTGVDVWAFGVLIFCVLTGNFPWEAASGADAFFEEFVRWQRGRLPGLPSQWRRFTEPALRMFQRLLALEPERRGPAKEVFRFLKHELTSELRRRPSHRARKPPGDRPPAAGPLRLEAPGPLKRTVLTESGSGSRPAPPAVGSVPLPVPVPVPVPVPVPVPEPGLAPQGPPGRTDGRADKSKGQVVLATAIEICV
Chain of CAMK2D (Q13557 whole entry): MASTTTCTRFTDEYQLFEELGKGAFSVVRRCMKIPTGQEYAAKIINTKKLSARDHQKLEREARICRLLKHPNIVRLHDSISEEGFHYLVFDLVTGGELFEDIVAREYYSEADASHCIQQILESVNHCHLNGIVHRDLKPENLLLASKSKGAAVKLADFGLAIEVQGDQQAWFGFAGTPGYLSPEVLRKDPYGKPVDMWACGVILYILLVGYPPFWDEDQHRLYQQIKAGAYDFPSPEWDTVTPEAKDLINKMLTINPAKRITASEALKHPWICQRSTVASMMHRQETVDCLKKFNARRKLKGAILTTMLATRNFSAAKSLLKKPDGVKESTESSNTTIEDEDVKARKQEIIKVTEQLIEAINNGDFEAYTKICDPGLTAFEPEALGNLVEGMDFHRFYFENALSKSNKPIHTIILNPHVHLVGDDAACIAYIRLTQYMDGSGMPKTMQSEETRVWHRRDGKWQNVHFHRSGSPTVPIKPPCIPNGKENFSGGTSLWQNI
Chain of NEK10 (Q6ZWH5 whole entry): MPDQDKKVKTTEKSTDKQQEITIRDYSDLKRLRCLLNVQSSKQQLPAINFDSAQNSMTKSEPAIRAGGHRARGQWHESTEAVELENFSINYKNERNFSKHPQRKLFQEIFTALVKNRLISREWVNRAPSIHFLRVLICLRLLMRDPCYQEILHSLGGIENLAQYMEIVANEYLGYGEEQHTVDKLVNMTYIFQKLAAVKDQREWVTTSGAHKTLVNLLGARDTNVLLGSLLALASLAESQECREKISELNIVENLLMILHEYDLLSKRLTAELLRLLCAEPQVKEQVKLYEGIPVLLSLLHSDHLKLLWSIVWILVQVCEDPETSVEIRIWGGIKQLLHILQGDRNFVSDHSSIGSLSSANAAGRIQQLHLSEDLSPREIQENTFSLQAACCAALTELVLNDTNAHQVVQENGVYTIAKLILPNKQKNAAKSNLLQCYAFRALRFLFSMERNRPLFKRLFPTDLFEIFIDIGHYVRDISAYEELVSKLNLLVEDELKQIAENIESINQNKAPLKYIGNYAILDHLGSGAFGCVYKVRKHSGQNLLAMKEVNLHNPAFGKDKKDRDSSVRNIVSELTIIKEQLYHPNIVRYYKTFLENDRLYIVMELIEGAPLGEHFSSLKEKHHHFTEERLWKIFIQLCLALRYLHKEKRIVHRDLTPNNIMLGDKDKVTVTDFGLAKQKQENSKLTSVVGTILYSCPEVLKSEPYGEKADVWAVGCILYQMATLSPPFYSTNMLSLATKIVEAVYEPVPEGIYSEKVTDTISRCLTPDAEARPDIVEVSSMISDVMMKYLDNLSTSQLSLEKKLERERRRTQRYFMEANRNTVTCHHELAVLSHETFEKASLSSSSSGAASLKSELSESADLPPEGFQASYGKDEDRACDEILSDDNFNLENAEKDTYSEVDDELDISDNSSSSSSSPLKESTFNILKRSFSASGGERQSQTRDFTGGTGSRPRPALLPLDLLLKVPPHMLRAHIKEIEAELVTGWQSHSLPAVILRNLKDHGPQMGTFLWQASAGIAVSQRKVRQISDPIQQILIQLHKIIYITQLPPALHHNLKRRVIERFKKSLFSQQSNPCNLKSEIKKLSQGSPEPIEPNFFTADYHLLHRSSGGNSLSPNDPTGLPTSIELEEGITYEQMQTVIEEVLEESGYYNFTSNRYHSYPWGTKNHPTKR
Chain of HCK (P08631 whole entry): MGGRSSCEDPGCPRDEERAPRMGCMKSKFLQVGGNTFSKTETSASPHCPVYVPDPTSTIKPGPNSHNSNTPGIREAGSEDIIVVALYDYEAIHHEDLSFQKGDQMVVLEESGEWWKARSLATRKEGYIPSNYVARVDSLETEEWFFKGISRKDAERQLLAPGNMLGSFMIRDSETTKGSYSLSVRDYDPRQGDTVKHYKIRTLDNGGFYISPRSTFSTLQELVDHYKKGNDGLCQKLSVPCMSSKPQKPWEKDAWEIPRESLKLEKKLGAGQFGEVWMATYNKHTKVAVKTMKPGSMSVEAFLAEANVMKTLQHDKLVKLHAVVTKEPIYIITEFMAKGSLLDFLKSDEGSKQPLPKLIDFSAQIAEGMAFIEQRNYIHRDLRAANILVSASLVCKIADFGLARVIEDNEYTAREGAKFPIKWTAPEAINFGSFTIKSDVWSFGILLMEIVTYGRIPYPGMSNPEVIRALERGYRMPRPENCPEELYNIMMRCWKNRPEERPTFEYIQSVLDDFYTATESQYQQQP

As to `c1ccc2c(c1)Sc1ccccc1N2CCN1CCOCC1` [J54], the remaining binding in [1] was determined as 97%; in experiment [2] it was 100%; in [3], 89%; in experiment [4], 72%; in experiment [5], 100%; in experiment [6] it was 100%. Further, the remaining binding in experiment [7] amounted to 78%; in experiment [8] it was 79%; in experiment [9], 97%; in [10], 100%; in experiment [11], 62%; in experiment [12], 92%. Moreover, the remaining binding in experiment [13] amounted to 92%; in experiment [14] it was 100%; in experiment [15], 98%; in experiment [16] it was 100%; in [17] it was 100%; in experiment [18], 93%.
